Columns and labels:
corneal wounds = assay: Corneal epithelial defect wound healing in rabbits (fluorescein staining, computerized area determination); format: in vivo, New Zealand White rabbits
Protocol: The study disclosed herein evaluates and quantifies the wound healing effects of histatins on the ocular surface of New Zealand White rabbits.
Epithelial defects are created in the right eye (oculus dexter, OD) of 12 New Zealand White rabbits. Due to animal regulations, bilateral wounding is not permitted. After the epithelial defects are made, the rabbits are randomized into treatment groups. Two (2) groups are treated with different cyclized histatin concentrations: 0.1 μg/ml and 10 μg/ml dissolved into an ophthalmic artificial tear preparation and delivered to the rabbits as an eye drop three times daily. Histatins known in the art, including, but not limited to, amino acid SEQ ID NOS: 1 through 33, which include Hst-1 (SEQ ID NO: 4), Hst-2 (SEQ ID NO: 5), Hst-3 (SEQ ID NO: 6), Hst-5 (SEQ ID NO: 30), and sortase cyclized histatin (SEQ ID NO: 33), may be used in these studies or in treatment protocols. […] This control group should receive the same vehicle identical to the other two groups but without histatin. An over-the-counter artificial tear preferably serves as the vehicle. The initial study included four (4) animals/group in three (3) groups, for a total of twelve rabbits.
Each rabbit group is preferably given moxifloxicin treatment to prevent infection.
(§1) The corneal wounds are then evaluated daily for the corneal wound healing abilities of histatin via fluorescein staining, fluorescent slit lamp biomicrophotography and computerized area determination. Evaluators are masked to the therapeutic treatment given to the rabbits. After healing, two (2) animals from each group are euthanized, and the corneas collected for histological processing (H&E staining with subsequent evaluation by veterinary histopathologist). The decision to perform histopathologic analysis after tissue procurement is made only if there is proven difference in healing between the different treatment groups and the controls. At study termination (study preferably continues for seven days), the remaining animals are euthanized.

rabbit corneas = conditions: in vivo
Protocol: as §1
The histatin used in this study was cyclized histatin 1.

## cyclo(DNLPETGGDSHEKRHHGYRRKFHEKHHSHREFPFYGDYGSNYLY) [cyclized histatin 1]
Corneal wounds; 0.1 μg/ml eye drop three times daily, 54 hours post wound
  Corneal wound size: 0.00 ± 0.00 mm^2
Corneal wounds; 0.1 μg/ml eye drop three times daily, 72 hours post wound
  Corneal wound size: 0.00 ± 0.00 mm^2
Corneal wounds; 0.1 ug/ml, 0 hours post wound
  Percentage of 1 hour post wound size: 100%
Corneal wounds; 0.1 ug/ml, 6 hours post wound
  Percentage of 1 hour post wound size: 85%
Corneal wounds; 0.1 ug/ml, 24 hours post wound
  Percentage of 1 hour post wound size: 69%
Corneal wounds; 0.1 ug/ml, 30 hours post wound
  Percentage of 1 hour post wound size: 43%
Corneal wounds; 0.1 ug/ml, 48 hours post wound
  Percentage of 1 hour post wound size: 2%
Corneal wounds; 0.1 ug/ml, 54 hours post wound
  Percentage of 1 hour post wound size: 0%
Corneal wounds; 0.1 ug/ml, 72 hours post wound
  Percentage of 1 hour post wound size: 0%
Corneal wounds; 10 μg/ml eye drop three times daily, 48 hours post wound
  Corneal wound size: 0.00 ± 0.07 mm^2
Corneal wounds; 10 μg/ml eye drop three times daily, 54 hours post wound
  Corneal wound size: 0.00 ± 0.00 mm^2
Corneal wounds; 10 μg/ml eye drop three times daily, 72 hours post wound
  Corneal wound size: 0.00 ± 0.00 mm^2
Corneal wounds; 10 ug/ml, 0 hours post wound
  Percentage of 1 hour post wound size: 100%
Corneal wounds; 10 ug/ml, 6 hours post wound
  Percentage of 1 hour post wound size: 84%
Corneal wounds; 10 ug/ml, 24 hours post wound
  Percentage of 1 hour post wound size: 58%
Corneal wounds; 10 ug/ml, 30 hours post wound
  Percentage of 1 hour post wound size: 43%
Corneal wounds; 10 ug/ml, 48 hours post wound
  Percentage of 1 hour post wound size: 0%
Corneal wounds; 10 ug/ml, 54 hours post wound
  Percentage of 1 hour post wound size: 0%
Corneal wounds; 10 ug/ml, 72 hours post wound
  Percentage of 1 hour post wound size: 0%
Corneal wounds; 0.1 and 10 μg/ml vs control, rabbits
  Healing activity of corneal wounds: significant dose dependent accelerated healing activity
Corneal wounds; wounds treated with 0.1 μg/ml or 10 μg/ml
  Wound healing speed compared with control at each time point: healed faster
Rabbit corneas
  Toxicity on pathological analysis of corneas: no toxicity
